Measured values: ChEMBL document CHEMBL5055668 (J Med Chem, 2021)
Activity calls are given as the source filed them. The rule behind the calls is not given here.

Assays:
[1] = molecular target: T1, Macrophage colony-stimulating factor 1 receptor (Mus musculus) (UniProt P09581); test: Inhibition of CSF-1R signaling pathway in C57BL/6 mouse BMDM cells assessed as reduction in M-CSF induced AKT phosphorylation preincubated for 12 hrs followed by M-CSF stimulation for 30 mins by Western blot analysis; format: cell-based
T1 sequence (whole entry): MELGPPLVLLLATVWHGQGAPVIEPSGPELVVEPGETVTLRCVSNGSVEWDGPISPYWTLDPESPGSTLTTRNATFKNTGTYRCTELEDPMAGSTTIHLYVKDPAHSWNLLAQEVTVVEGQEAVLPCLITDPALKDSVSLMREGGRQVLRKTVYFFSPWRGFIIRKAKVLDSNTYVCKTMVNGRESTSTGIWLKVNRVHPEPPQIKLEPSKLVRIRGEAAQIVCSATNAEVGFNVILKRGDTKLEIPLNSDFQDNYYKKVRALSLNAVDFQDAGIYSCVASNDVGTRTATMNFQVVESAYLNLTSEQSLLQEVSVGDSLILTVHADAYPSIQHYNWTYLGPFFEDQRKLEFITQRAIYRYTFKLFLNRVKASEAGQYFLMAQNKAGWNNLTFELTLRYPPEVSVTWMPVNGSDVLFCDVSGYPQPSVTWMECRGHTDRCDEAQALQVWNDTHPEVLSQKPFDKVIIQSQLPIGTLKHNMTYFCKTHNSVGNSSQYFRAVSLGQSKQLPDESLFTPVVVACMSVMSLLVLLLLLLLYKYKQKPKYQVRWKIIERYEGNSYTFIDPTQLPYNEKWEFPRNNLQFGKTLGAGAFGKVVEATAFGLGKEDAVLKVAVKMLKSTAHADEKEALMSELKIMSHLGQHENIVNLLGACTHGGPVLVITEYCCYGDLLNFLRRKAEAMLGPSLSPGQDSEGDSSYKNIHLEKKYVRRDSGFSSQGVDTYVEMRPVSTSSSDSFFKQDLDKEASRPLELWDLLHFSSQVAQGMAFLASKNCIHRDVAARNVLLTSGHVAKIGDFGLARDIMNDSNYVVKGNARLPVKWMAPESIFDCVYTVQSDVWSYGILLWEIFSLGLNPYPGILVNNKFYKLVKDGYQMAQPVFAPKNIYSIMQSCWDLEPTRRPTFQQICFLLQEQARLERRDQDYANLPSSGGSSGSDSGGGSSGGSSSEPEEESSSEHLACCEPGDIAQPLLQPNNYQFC

[2] = molecular target: T1, Macrophage colony-stimulating factor 1 receptor (Mus musculus); test: Binding affinity to CSF-1R in C57BL/6 mouse BMDM cells assessed as increase in melting temperature at 100 nM after 1 hr by CETSA; format: cell-based
[3] = molecular target: T1, Macrophage colony-stimulating factor 1 receptor (Mus musculus); test: Binding affinity to CSF-1R in C57BL/6 mouse BMDM cells at 100 nM after 1 hr by SIP assay; format: cell-based
BMDM = test: Induction of conversion of M2-macrophages to the M1 phenotype in CM of MC38 cells treated C57BL/6 mouse BMDM cells assessed as down regulation of Arg1 mRNA expression at 30 to 100 nM preincubated with culture medium of MC38 cells for 24 hrs followed by compound addition and measured after 24 hrs by qPCR analysis; format: functional, cell-based; details: dose 30-100 nM
THP-1 [4] = test: Induction of conversion of M2-macrophages to the M1 phenotype in CM of HCT116 cells treated […]-differentiated human THP-1 cells assessed as down regulation of Arg1 mRNA expression at 30 to 100 nM incubated for 24 hrs by qPCR analysis; format: functional, cell-based; details: dose 30-100 nM
THP-1 [5] = test: Induction of conversion of M2-macrophages to the M1 phenotype in CM of HCT116 cells treated […]-differentiated human THP-1 cells assessed as down regulation of Vegf mRNA expression at 30 to 100 nM incubated for 24 hrs by qPCR analysis; format: functional, cell-based; details: dose 30-100 nM
THP-1 [6] = test: Induction of conversion of M2-macrophages to the M1 phenotype in CM of HCT116 cells treated […]-differentiated human THP-1 cells assessed as upregulation of Tnf mRNA expression at 30 to 100 nM incubated for 24 hrs by qPCR analysis; format: functional, cell-based; details: dose 30-100 nM
MC-38 [7] = test: Antiproliferative activity against mouse MC38 cells cultured with culture medium of M2-macrophages assessed as reduction in cell viability at 10 to 100 nM incubated for 24 hrs by CCK-8 assay; format: functional, cell-based; details: dose 10-100 nM
MC-38 [8] = test: Antitumor activity against mouse MC38 cells allografted in C57BL6 mouse assessed as decrease in Vegf mRNA expression at 10 to 20 mg/kg, po administered daily for 2 weeks by qPCR analysis; format: functional, organism-based; details: dose 10-20 mg/kg
HCT-116 = test: Antitumor activity against human HCT-116 cells xenografted in nude BALB/c mouse assessed as reduction in tumor weight at 5 to 20 mg/kg, po administered daily for 2 weeks; format: functional, organism-based; details: dose 5-20 mg/kg

inhibition [1]: Dose-dependent effect
Tm [2]: 68 °C
Activity [3]: Active
Structure (SMILES): Cc1[nH]c(/C=C2\C(=O)Nc3cc(NC(=O)Nc4cc(C(C)(C)C)on4)ccc32)c(C)c1NC(=O)CN1CCN(C)CC1
Activity (BMDM): Active
Activity (THP-1 [4]): Active
Activity (THP-1 [5]): Active
Activity (THP-1 [6]): Active
Activity (MC-38 [7]): Active
Activity (MC-38 [8]): Active
Activity (HCT-116): inactive
